Laboratory results taken from patent US12440473B2 (priority 2019, dated 2025).
Like-named read-outs stand apart in the source and are kept apart here.

Tests used:
cannabinoid receptor 1 = cannabinoid receptor 1 (Homo sapiens, UniProt P21554); test: Cannabinoid receptor 1 agonist activity (Example 4); conditions: for % maximum activity compared to positive control (CP55940): cannabinoid receptor 1 agonist (Table 6)
full length human PPAR-α = target: T1, full length human PPAR-α (Homo sapiens, UniProt Q07869); test: PathHunter NHR Protein Interaction assay, PPAR-α agonist activity (CHO cells); format: cell-based; conditions: for PPAR-α EC50 % improvement over FFA form: compared to free fatty acid form; for PPAR-α agonist maximum activity: text of Example 3; for Emax: CHO, PPAR-alpha, free fatty acid form, normalized to control compound (GW7647), read-out: Maximum Response; for EC50: Table 5, read-out: Cell-Based PPAR Agonist Activity Half Maximal Effective Concentration (EC50) PPAR-α
T1 construct: host or cells: Chinese hamster ovary (CHO) cell lines
T1 sequence (Q07869 1-468): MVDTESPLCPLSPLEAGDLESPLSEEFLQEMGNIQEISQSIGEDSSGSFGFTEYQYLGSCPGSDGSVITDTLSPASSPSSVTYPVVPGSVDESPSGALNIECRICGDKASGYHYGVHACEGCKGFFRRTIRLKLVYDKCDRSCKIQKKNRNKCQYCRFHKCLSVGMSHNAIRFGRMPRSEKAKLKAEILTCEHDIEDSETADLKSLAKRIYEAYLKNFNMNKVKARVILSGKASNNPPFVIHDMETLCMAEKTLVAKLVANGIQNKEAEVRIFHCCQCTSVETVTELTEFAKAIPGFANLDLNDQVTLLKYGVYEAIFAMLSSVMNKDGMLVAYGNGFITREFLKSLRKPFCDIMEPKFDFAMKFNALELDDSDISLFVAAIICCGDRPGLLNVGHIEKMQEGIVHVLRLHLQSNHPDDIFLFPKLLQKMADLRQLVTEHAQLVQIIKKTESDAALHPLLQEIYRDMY
Experimental: (§1) PPAR-α, PPAR-δ, and PPAR-γ agonist activities were measured using PathHunter Nuclear Hormone Receptor (NHR) Protein Interaction (Pro) assays (DiscoverX, Freemont, California). Briefly, Chinese hamster ovary (CHO) cell lines were used to monitor the activation of PPAR-α, PPAR-δ, and PPAR-γ in a homogenous, non-imaging assay format using Enzyme Fragment Complementation (EFC). The NHR Pro assay was based on detection of protein-protein interactions between activated, full length PPAR-α, PPAR-δ, and PPAR-γ proteins and a nuclear fusion protein containing Steroid Receptor Co-activator Peptide (SRCP) domains with one or more canonical LXXLL interaction motifs. PPAR-α, PPAR-δ, and PPAR-γ were tagged with the ProLink component of the EFC assay system, and the SRCP domain was fused to the enzyme acceptor component (EA) expressed in the nucleus. When bound by ligand, PPAR-α, PPAR-δ, or PPAR-γ migrated to the nucleus and recruited the SRCP domain, whereby complementation occurred, generating a unit of active β-Galactosidase (β-Gal) and production of chemiluminescent signal. […] Percentage activity was calculated using the following formula: % Activity=100%×(mean RLU of test sample−mean RLU of vehicle control)/(mean MAX control ligand−mean RLU of vehicle control).

full length human PPAR-δ = target: T2, full length human PPAR-δ (Homo sapiens, UniProt Q03181); test: PathHunter NHR Protein Interaction assay, PPAR-δ agonist activity (CHO cells); format: cell-based; conditions: for PPAR-δ EC50 % improvement over FFA form: compared to free fatty acid form; for Emax: CHO, free fatty acid form, normalized to control compound (L-165,041), read-out: Maximum Response
T2 construct: host or cells: Chinese hamster ovary (CHO) cell lines
T2 sequence (Q03181 1-441): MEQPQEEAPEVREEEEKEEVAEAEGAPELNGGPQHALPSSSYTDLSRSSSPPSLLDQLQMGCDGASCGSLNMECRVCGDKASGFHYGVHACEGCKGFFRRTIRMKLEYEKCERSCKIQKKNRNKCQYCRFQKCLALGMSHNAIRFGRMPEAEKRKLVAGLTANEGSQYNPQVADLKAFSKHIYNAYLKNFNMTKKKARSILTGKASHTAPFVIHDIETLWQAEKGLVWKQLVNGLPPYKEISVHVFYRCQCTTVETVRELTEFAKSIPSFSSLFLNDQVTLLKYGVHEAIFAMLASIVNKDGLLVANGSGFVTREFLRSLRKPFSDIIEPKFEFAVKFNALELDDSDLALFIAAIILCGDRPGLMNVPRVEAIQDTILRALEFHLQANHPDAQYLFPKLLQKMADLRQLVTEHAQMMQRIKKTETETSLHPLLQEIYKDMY
Experimental: as §1

full length human PPAR-γ = target: T3, full length human PPAR-γ (Homo sapiens, UniProt P37231); test: PathHunter NHR Protein Interaction assay, PPAR-γ agonist activity (CHO cells); format: cell-based; conditions: for Emax: CHO, PPAR-gamma, free fatty acid form, normalized to control compound (Troglitazone), read-out: Maximum Response
T3 construct: host or cells: Chinese hamster ovary (CHO) cell lines
T3 sequence (P37231 1-505): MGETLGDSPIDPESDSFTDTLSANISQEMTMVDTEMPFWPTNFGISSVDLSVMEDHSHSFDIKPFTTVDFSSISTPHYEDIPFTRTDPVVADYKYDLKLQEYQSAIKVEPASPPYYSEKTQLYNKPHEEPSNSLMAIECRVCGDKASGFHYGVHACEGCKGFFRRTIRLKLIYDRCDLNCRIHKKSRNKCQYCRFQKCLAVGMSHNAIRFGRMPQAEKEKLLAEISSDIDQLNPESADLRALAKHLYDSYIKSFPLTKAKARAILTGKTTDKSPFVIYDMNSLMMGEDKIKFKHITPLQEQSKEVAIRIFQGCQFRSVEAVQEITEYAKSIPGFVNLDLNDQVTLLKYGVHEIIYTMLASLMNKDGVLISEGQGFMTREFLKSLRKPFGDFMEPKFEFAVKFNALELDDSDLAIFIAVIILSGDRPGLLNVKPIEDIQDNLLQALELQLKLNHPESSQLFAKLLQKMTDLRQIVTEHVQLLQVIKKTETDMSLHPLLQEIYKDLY
Experimental: as §1

CB1 receptor [1] = target: T4, CB1 receptor (Homo sapiens, UniProt P21554); conditions: for CB1-agonist maximum activity: positive control CP 55940 assigned 100% activity
Text: (§2) Briefly, a variety of standardized and optimized functional assays were used to assess and compare the selected compounds' pharmacologic targets, including G protein-coupled receptors (ADORA2A, ADRA1A, ADRA2A, ADRB1, ADRB2, CB1, CB2, CCK1, D1, D2S, ETA, H1, H2, M1 M2, M3, OPRD1, OPRK1, OPRM1, 5HTR1A, 5HTR1B, 5HTR2A, 5HTR2B, AVPR1A), kinases (LCK, INSR, VEGFR2, ROCK1), transporters (DAT, NET, SERT), ion channels (GABAA, 5-HT3, CA1.2, HERG, KVLQT1/MINK, NA1.5, NMDAR1/2B, NACHR), nuclear receptors (AR, GR), and non-kinase enzymes (COX1, COX2, ACHE, MAO-A, PDE3A, PDE4D2). […] Maximum activity (%) was also determined based on comparisons with internal positive controls, which were assigned 100% activity.

CB1 receptor [2] = target: T4, CB1 receptor; test: cell-based
Text: as §2

diet-induced obese mice = test: Diet-induced obese mice on high fat diet, daily oral gavage for 12 weeks; conditions: for Cholesterol / Glucose: Results (Day 84), 6 h fasted samples
Experimental: Forty C57BL/6J mice were fed a high fat diet (HFD) (D12492, 60% kcals fat) for 8 weeks. Study mice were then divided into the following four groups of ten: vehicle controls, low dose C17:0-treated (5 mg/kg body weight), high-dose C17:0-treated (50 mg/kg body weight), and low-dose C15:0-treated (5 mg/kg body weight).
“Results” values are based on 6 h fasted samples.

[3] = system: G protein-coupled receptors, kinases, transporters, ion channels, nuclear receptors, non-kinase enzymes; test: SAFETYscan E/IC50 ELECT panel, agonist and antagonist activities across 78 assays
Text: as §2

OPRM1 = OPRM1 (Homo sapiens, UniProt P35372)
Chain of OPRM1 (P35372 whole entry): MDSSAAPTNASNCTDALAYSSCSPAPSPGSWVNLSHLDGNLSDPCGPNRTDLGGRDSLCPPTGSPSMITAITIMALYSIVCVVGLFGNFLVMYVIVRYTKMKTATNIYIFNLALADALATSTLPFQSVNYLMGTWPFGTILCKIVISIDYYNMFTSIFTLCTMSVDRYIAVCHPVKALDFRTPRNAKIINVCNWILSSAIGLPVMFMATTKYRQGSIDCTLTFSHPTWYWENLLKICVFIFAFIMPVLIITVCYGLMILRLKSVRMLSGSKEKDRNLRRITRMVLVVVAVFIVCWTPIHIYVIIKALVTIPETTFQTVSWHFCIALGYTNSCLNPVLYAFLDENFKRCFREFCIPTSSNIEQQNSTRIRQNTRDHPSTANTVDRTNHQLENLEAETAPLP
Text: as §2

T4 sequence (P21554 whole entry): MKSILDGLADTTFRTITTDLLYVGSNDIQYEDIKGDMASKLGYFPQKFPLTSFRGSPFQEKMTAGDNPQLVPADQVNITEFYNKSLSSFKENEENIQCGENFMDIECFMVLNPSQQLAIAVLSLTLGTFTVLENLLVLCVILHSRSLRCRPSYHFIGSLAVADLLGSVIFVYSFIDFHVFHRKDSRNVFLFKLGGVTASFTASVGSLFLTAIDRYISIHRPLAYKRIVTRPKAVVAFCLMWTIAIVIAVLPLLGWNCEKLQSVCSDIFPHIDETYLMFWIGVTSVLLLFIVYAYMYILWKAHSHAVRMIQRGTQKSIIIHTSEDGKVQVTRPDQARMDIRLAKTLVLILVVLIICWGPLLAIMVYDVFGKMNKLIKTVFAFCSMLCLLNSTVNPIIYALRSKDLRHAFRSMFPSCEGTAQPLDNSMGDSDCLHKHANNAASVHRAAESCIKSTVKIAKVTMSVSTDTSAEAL
Chain of cannabinoid receptor 1 (P21554 whole entry, species assumed): as the sequence (P21554 whole entry) above

CCCCCCCCCCCCCC(CC)(CC)C(=O)O [diethyl-C15:0]
EC50 (cannabinoid receptor 1): 3300 nM
% maximum activity compared to positive control (CP55940) (cannabinoid receptor 1): 93%

CCCCCCCCCCCCCC(CC)C(=O)O (centres unmarked) [2-ethyl-C15:0, 2-ethylpentadecanoic acid]
PPAR-α EC50 % improvement over FFA form (full length human PPAR-α): 90%
PPAR-α agonist maximum activity (full length human PPAR-α): 170%
PPAR-δ EC50 % improvement over FFA form (full length human PPAR-δ): 89%
PPAR-δ agonist maximum activity (full length human PPAR-δ; text of Example 3): 72.4%
EC50 (full length human PPAR-δ; text of Example 3, read-out: PPAR-δ agonist EC50): 28 nM
PPAR-γ EC50 % improvement over FFA form (full length human PPAR-γ; compared to free fatty acid form): >49%
PPAR-γ agonist activity (full length human PPAR-γ; in words): acquired PPAR-γ agonist activity
CB1-agonist maximum activity (CB1 receptor [1]): 53.7%
EC50 (CB1 receptor [2]): 27 nM

CCCCCCCCCCCCCCCCC(=O)O [C17:0, heptadecanoic acid]
Emax (full length human PPAR-α): 16.7%
Emax (full length human PPAR-δ; PPAR-delta): 39.8%
EC50 (full length human PPAR-δ; PPAR-delta, free fatty acid form (Table 4), read-out: EC50): 17400 nM
Emax (full length human PPAR-γ): 1%
metabolic syndrome compared to controls (diet-induced obese mice; C17:0 5 and 50 mg/kg, vs vehicle control group): trended toward attenuated metabolic syndrome
Cholesterol (diet-induced obese mice; 5 mg/kg daily oral): 197 ± 31 mg/dL
Glucose (diet-induced obese mice; 5 mg/kg daily oral): 296 ± 23 mg/dL
Cholesterol (diet-induced obese mice; 50 mg/kg daily oral): 187 ± 44 mg/dL
Glucose (diet-induced obese mice; 50 mg/kg daily oral): 282 ± 31 mg/dL
proinflammatory cytokines and chemokines (TNF-α and MCP-1) compared to controls (diet-induced obese mice; high-dose 50 mg/kg, vs vehicle control group): significantly lower

CCCCCCCCCCCCCC(=O)O [C14:0, myristic acid, reference compound]
Emax (full length human PPAR-α): 74.1%
EC50 (full length human PPAR-α): 8400 nM
Emax (full length human PPAR-γ): 19%

CCCCCCCCCCCCCCCC(=O)O [C16:0, palmitic acid, reference compound]
Emax (full length human PPAR-α): 56.1%
Emax (full length human PPAR-γ): 4.7%

CCCCCCCCCCCCCC(C)C(=O)O (centres unmarked) [2-methyl-C15:0, 2-methylpentadecanoic acid]
additional activity across 78 assays [3]: no additional activity was detected

CCCCCCCCCCCCCCc1nnn[nH]1 [1-tetrazole-C15:0]
EC50 (full length human PPAR-α): 2600 nM
PPAR-α EC50 % improvement over FFA form (full length human PPAR-α): 77%
PPAR-α agonist maximum activity (full length human PPAR-α): 32%
EC50 (full length human PPAR-δ; Table 5, read-out: Cell-Based PPAR Agonist Activity Half Maximal Effective Concentration (EC50) PPAR-δ): 500 nM
PPAR-δ EC50 % improvement over FFA form (full length human PPAR-δ): 81%
PPAR-δ agonist maximum activity (full length human PPAR-δ; text of Example 3): 18%
EC50 (full length human PPAR-γ; Table 5, read-out: Cell-Based PPAR Agonist Activity Half Maximal Effective Concentration (EC50) PPAR-γ): > 100000 nM
CB1-agonist maximum activity (CB1 receptor [1]): 48.3%
IC50 (CB1 receptor [1]; read-out: CB1-agonist activity IC50, ten-point concentration curves): 1300 nM
OPRM1 antagonist maximum activity (OPRM1): 46.2%
IC50 (OPRM1; read-out: OPRM1 antagonist IC50, ten-point concentration curves): 3900 nM

CCCCCCCCCCCCOCC(=O)O [3-oxa-C15:0, 2-(dodecyloxy)acetic acid]
EC50 (cannabinoid receptor 1): 570 nM
% maximum activity compared to positive control (CP55940) (cannabinoid receptor 1): 83%

CCCCCCCCCCCCCCC(=O)O [C15:0, pentadecanoic acid]
Emax (full length human PPAR-α): 65.8%
Emax (full length human PPAR-δ; PPAR-delta): 52.8%
Emax (full length human PPAR-γ): 7%
metabolic syndrome (glucose, insulin, cholesterol, proinflammatory cytokines) compared to controls (diet-induced obese mice; 5 mg/kg, vs vehicle control group): attenuated metabolic syndrome
Cholesterol (diet-induced obese mice; 5 mg/kg daily oral): 183 ± 25 mg/dL
Glucose (diet-induced obese mice; 5 mg/kg daily oral): 245 ± 37 mg/dL
additional activity across 78 assays [3]: no additional activity was detected
